The source of these data is US4900725A, “Steroids including a spiro ring in position 17, the process for their preparation and their use” (Roussel Uclaf, priority 1986, dated 1990).

As a reminder, the inhibition is the relative decrease from the control value, in per cent.

In experiment [1] the target is T1, Progestogene receptor of rabbit uterus (Oryctolagus cuniculus, UniProt P06186).
T1 construct: the uterus is removed, weighed and homogenized at 0° C; from tissue; host or cells: uterus of estradiol-treated impuberal rabbits, 105,000 g supernatant (cytosol)
T1 sequence (P06186 1-930): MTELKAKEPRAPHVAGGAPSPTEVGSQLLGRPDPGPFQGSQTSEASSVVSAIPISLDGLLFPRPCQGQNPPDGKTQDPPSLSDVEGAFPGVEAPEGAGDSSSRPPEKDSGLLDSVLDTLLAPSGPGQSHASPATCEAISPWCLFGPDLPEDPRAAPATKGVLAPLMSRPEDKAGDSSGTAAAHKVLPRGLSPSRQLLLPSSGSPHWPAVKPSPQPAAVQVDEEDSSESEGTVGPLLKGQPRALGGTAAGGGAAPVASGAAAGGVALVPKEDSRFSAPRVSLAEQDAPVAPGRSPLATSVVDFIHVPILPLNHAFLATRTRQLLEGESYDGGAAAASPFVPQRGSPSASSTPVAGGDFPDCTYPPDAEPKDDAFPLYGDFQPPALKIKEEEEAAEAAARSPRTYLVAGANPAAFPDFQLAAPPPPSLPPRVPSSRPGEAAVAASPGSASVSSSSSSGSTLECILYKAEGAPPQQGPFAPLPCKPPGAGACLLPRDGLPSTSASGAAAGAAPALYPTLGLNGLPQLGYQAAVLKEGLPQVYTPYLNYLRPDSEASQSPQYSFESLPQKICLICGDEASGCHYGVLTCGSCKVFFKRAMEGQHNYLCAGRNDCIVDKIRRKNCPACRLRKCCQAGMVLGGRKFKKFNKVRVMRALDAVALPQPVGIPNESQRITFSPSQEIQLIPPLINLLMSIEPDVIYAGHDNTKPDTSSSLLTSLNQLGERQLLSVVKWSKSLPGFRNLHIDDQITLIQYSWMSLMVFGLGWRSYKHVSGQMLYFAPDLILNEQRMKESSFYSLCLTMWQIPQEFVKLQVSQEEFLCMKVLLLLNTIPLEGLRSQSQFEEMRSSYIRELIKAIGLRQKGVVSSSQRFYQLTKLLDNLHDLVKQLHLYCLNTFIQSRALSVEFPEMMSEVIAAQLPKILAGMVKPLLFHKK
Briefly: Progestogene receptor of rabbit uterus, relative bonding affinity (RBA). The format is binding. As to conditions: for Relative bonding affinity (RBA), Progestogen, 2 H: incubation 2 H at 0° C.; for Relative bonding affinity (RBA), Progestogen, 2 H / Relative bonding affinity (RBA), Progestogen, 24 H: versus cold reference hormone, tritiated R; for Relative bonding affinity (RBA), Progestogen, 24 H: incubation 24 H at 0° C. Here is the method:
Progestogene receptor of rabbit uterus
Impuberal rabbits weighing about 1 kg receive a cutaneous application of […] of estradiol. 5 days after this treatment, the animals are killed, the uterus is removed, weighed and homogenized at 0° C., using a Potter teflon-glass, in a buffered solution TS (tirs 10 mM, saccharose 0.25 M, HCl pH 7.4) (1 g of tissue for 50 ml of TS). The homogenate is then ultra-centrifuged (105,000 g×90 min.) at 0° C.
Aliquots of the supernatant so obtained are incubated at 0° C. for a time t, with a constant concentration (T) of tritiated product R (17,21-dimethyl-19-nor-4,9-pregnadiene-3,20-dione) in the presence of increasing concentrations (0-2500.10^-9 M either of R cold, or of cold progesterone, or of the cold product under test. The concentration (B) of bonded triated (R) is then measured in each incubate by the technique of adsorption on carbon dextran.
(§1) Calculation of the relative bonding affinity
(§2) The calculation of the relative bonding affinity (RBA) is the same for all the receptors.
(§3) The two following curves are drawn: the percentage of bonded tritiated hormone B/T as a function of the concentration of the cold reference hormone, and B/T as a function of the logarithm of the concentration of the cold product under test. The straight line of the equation [formula] is determined. B/T max=percentage of tritiated hormone bonded for an incubation of this tritiated hormone at the concentration (T). B/T min=percentage of tritiated hormone bonded for an incubation of this tritiated hormone at the concentration (T) in the presence of a great excess of cold hormone (2,500.10^-9 M).
(§4) The intersections of the straight line I50 with the curves enables the concentrations of the cold reference hormone (CH) and of the cold product under test (CX) to be evaluated which inhibit by 50% the bonding of the tritiated hormone on the receptor.
(§5) The relative bonding affinity (RBA) of the product under test is determined by the equation: [formula]

Experiment [2] has as its target T2, Glucocorticoid receptor of the rat thymus (Rattus norvegicus, UniProt P06536).
T2 construct: the thymus is removed and homogenized at 0° C. in a buffer; from tissue; host or cells: thymus of adrenalectomized male Sprague-Dawley rats, 105,000 g supernatant (cytosol)
T2 sequence (P06536 1-795): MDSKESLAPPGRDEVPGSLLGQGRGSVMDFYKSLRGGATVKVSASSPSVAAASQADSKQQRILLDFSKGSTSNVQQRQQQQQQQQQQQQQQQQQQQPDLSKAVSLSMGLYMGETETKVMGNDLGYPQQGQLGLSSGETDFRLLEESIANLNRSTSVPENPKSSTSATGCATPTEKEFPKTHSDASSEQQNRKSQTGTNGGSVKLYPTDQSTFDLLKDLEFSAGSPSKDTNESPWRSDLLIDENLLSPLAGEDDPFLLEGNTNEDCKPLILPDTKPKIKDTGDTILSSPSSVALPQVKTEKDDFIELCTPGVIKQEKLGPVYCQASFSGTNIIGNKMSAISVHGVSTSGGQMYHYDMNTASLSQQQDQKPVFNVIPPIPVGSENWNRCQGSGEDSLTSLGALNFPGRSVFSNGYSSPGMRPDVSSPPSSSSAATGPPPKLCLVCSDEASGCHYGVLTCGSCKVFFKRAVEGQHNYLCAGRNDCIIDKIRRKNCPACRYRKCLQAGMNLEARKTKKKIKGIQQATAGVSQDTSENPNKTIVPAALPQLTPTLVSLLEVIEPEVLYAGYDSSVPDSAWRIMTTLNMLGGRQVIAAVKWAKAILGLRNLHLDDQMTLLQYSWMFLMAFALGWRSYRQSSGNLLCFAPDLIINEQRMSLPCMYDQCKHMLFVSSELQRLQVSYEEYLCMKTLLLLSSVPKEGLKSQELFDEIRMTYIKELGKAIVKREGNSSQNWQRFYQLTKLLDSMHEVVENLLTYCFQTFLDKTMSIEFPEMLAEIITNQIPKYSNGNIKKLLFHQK
Put plainly: Glucocorticoid receptor of the rat thymus, relative bonding affinity (RBA). The format is binding, rat (Sprague-Dawley). As to conditions: for Relative bonding affinity (RBA), Glucocorticoid, 4 H: incubation 4 H at 0° C.; for Relative bonding affinity (RBA), Glucocorticoid, 4 H / Relative bonding affinity (RBA), Glucocorticoid, 24 H: versus cold dexamethasone, tritiated dexamethasone; for Relative bonding affinity (RBA), Glucocorticoid, 24 H: incubation 24 H at 0° C. As for the experimental part: Glucocorticoid receptor of the rat thymus
Male Sprague-Dawley EOPS rats, weighing 160 to 200 g are suprerenalectomized. 4 to 8 days after this ablation, the animals are killed, and the thymus is removed and homogenized at 0° C. in a buffer, Tris 10 mM, saccharose 0.25M, dithiothreitol 2 mM, HCl pH 7.4, using a Potter polytetrafluoroethylene-glass (1 g of tissue for 10 ml of TS). The homogenate is then ultra-centrifuged (105,000 g×90 min.) at 0° C. Aliquots of the supernatant so obtained are incubated at 0° C. for a time (t) with a constant concentration (T) of tritiated dexamethasone in the presence of increasing concentrations (0-2,500.10^-9 M) either of cold dexamethasone, or of the cold product under test. The concentration of bonded tritiated dexamethasone (B) is then measured in each incubate by the technique of adsorption on carbon dextran.
as §1, §2, §3, §4, §5

Experiment [3] has as its system thymocytes of suprarenalectomized rats. Put plainly: Antiglucocorticoid activity: inhibition of the effect of dexamethasone on tritiated uridine incorporation in thymocytes. The format is cell-based. The conditions noted are these: Rattus norvegicus, Thymocyte, 5.10^-8 M dexamethasone, 37° C., 30 hours; for inhibition at 1 µM: product at 10^-6 M; for inhibition at 0.1 µM: product at 10^-7 M; for inhibition at 0.01 µM: product at 10^-8 M. As for the experimental part:
II. Antiglucocorticoid activity
The technique used derives from the method described by Dausse et Col. in "Molecular Pharmacology", 13, 948-953, (1977) ("the relationship between glucocorticoid structure and effects upon Thymocytes") for the thymocytes of mice.
The thymocytes of suprarenalectomized rats are incubated at 37° C. for 30 hours in a nutritive medium containing 5.10^-8 M of dexamethasone in the presence or not of a product being studied, at different concentrations. Tritiated uridine is added, and the incubation is continued for one hour. The incubates are cooled, and treated with a 5% solution of trichloroacetic acid, then filtered on Whatman GF/A paper, and washed three times with a 5% trichloroacetic acid solution. The radio-activity retained by the filter is determined.
The products of examples 1 to 4 oppose this effect.

For experiment [4] the test system is unchanged. As to conditions: general statement on glucocorticoids, in particular dexamethasone; cited from earlier work.

With `CN(C)c1ccc(C2CC3(C)C(CCC34CCCO4)C3CCC4=CC(=O)CCC4=C23)cc1` (stereo not shown) [Example 1], in experiment [1], the “Relative bonding affinity (RBA), Progestogen, 2 H” value (shortened to “Relative bonding affinity … 2 H”) is given as 62 and the “Relative bonding affinity (RBA), Progestogen, 24 H” value is 307. In addition, in experiment [2], the “Relative bonding affinity (RBA), Glucocorticoid, 4 H” value was determined as 118 and the “Relative bonding affinity (RBA), Glucocorticoid, 24 H” value turned out to be 48. For the same compound, in experiment [3], the inhibition at 1 µM worked out at 125%, the inhibition at 0.1 µM was found to be 51% and the inhibition at 0.01 µM is 11%.
Consider `C[C@@H]1C[C@H]2[C@@H]3CCC4=CC(=O)C=C[C@]4(C)[C@@]3(F)[C@@H](O)C[C@]2(C)[C@@]1(O)C(=O)CO` [dexamethasone], for which, in experiment [4], the “incorporation of tritiated uridine (in words)” value is reported as “reduction in the incorporation of tritiated uridine”.
In the case of `CSc1ccc(C2CC3(C)C(CCC34CCCO4)C3CCC4=CC(=O)CCC4=C23)cc1` [Example 4, (17R) 4',5'-dihydro-11-beta-[4-(methylthio)phenyl]-spiro(estra-4,9-dien-17,2'-(3H)-furan)-3-one], the “affinity for the progestogen receptor (in words)” value in experiment [1] (conclusion from RBA) is listed as “very marked affinity”. Further, in experiment [1], the “Relative bonding affinity … 2 H” value came to 78 and the “Relative bonding affinity (RBA), Progestogen, 24 H” value came out at 388. Further, the “affinity for the glucocorticoid receptor (in words)” value in experiment [2] (conclusion from RBA) is listed as “very marked affinity”. Besides, in experiment [2], the “Relative bonding affinity (RBA), Glucocorticoid, 4 H” value amounted to 69 and the “Relative bonding affinity (RBA), Glucocorticoid, 24 H” value is recorded as 39. Further, in experiment [3], the inhibition at 1 µM is 80%, the inhibition at 0.1 µM amounted to 21% and the inhibition at 0.01 µM stood at 0%.
With `CN(C)c1ccc(C2CC3(C)C(CCC34C=CCO4)C3CCC4=CC(=O)CCC4=C23)cc1` (stereo not drawn) [Example 2, (17 R) 11-beta-[4-(dimethylamino)phenyl]-spiro (estra-4,9-dien-17,27-(5H)-furan)-3-one], in experiment [1], the “Relative bonding affinity … 2 H” value was 23 and the “Relative bonding affinity (RBA), Progestogen, 24 H” value was 222. Moreover, in experiment [2], the “Relative bonding affinity (RBA), Glucocorticoid, 4 H” value amounted to 142 and the “Relative bonding affinity (RBA), Glucocorticoid, 24 H” value stood at 96. In experiment [3], the inhibition at 1 µM is 32%, the inhibition at 0.1 µM came out at 18% and the inhibition at 0.01 µM stood at 0%.
As to `CSc1ccc(C2CC3(C)C(CCC34C=CCO4)C3CCC4=CC(=O)CCC4=C23)cc1` [Example 3, (17R) 11-beta-[4-(methylthio)phenyl]-spiro(estra-4,9-dien-17,2'-(5H)-furan)-3-one], in experiment [1], the “Relative bonding affinity … 2 H” value is on record as 35 and the “Relative bonding affinity (RBA), Progestogen, 24 H” value was 242. Further, in experiment [2], the “Relative bonding affinity (RBA), Glucocorticoid, 4 H” value is 56 and the “Relative bonding affinity (RBA), Glucocorticoid, 24 H” value was 41. Besides, in experiment [3], the inhibition at 1 µM turned out to be 84%, the inhibition at 0.1 µM was determined as 12% and the inhibition at 0.01 µM was 0%.
